ChEMBL document CHEMBL1159313, “Structure and stereochemistry of new cytotoxic clerodane diterpenoids from the bark of Casearia lucida from the Madagascar rainforest” (J Nat Prod, 2002)
Values after ≈ are worked out from the molar mass of the structure shown.

Experiments:
Type in all cases: functional, cell-based
A2780 = experiment: Cytotoxicity against human A2780 cells after 48 hrs by microplate assay; conditions: A2780, 48 h
[1] = Cytotoxicity against human drug-sensitive […] cells after 48 hrs by microplate assay
HT-29 = experiment: Cytotoxicity against human HT-29 cells after 48 hrs by microplate assay; conditions: HT-29, 48 h
K562 = experiment: Cytotoxicity against human K562 cells after 48 hrs by microplate assay; conditions: K562, 48 h
HCT-116 = experiment: Cytotoxicity against human HCT116 cells after 48 hrs by microplate assay; conditions: HCT-116, 48 h
LX-1 = experiment: Cytotoxicity against human LX1 cells after 48 hrs by microplate assay; conditions: LX-1, 48 h
SK-BR-3 = experiment: Cytotoxicity against human SKBR3 cells after 48 hrs by microplate assay; conditions: SK-BR-3, 48 h
ABAE = experiment: Cytotoxicity against ABAE cells after 48 hrs by microplate assay; conditions: Bos taurus
[2] = Cytotoxicity against human drug-resistant A2780DDP cells after 48 hrs by microplate assay
PC-3 = experiment: Cytotoxicity against human PC3 cells after 48 hrs by microplate assay; conditions: PC-3, 48 h

Row | SMILES | IC50 (A2780) [µg/mL] | IC50 [1] [µg/mL] | IC50 (HT-29) [µg/mL] | IC50 (K562) [µg/mL] | IC50 (HCT-116) [µg/mL] | IC50 (LX-1) [µg/mL] | IC50 (SK-BR-3) [µg/mL] | IC50 (ABAE) [µg/mL] | IC50 [2] [µg/mL] | IC50 (PC-3) [µg/mL]
1 | C=CC(=C)CC[C@]1(C)[C@H]2C[C@H](OC(=O)C(C)CC)C=C3[C@H](OC(C)=O)O[C@H](OC(C)=O)[C@@]32[C@H](OC)C[C@@H]1C (relative stereo) | 2.9 (≈ 5.44 µM) | 1.4 (≈ 2.63 µM) | 1.3 (≈ 2.44 µM) | 1.4 (≈ 2.63 µM) | 1 (≈ 1.88 µM) | 1.2 (≈ 2.25 µM) | 3.5 (≈ 6.57 µM) | 0.8 (≈ 1.5 µM) | 2.9 (≈ 5.44 µM) | 3 (≈ 5.63 µM)
2 | C=CC(=C)CC[C@]1(C)[C@H]2C[C@H](OC(=O)C(C)CC)C=C3[C@H](OC(C)=O)O[C@H](OC(C)=O)[C@@]32[C@H](O)C[C@@H]1C (relative stereo) | 2.9 (≈ 5.59 µM) | 1.2 (≈ 2.31 µM) | 1 (≈ 1.93 µM) | 1.4 (≈ 2.7 µM) | 1.6 (≈ 3.08 µM) | 1.1 (≈ 2.12 µM) | 1.4 (≈ 2.7 µM) | 0.8 (≈ 1.54 µM) | 2.1 (≈ 4.05 µM) | 2.8 (≈ 5.4 µM)
3 | C=C/C(C)=C/C[C@]1(C)[C@H]2C[C@H](OC(=O)C(C)CC)C=C3[C@H](OC(C)=O)O[C@H](OC(C)=O)[C@@]32[C@H](O)C[C@@H]1C (relative stereo) [CASEARLUCIN A] | 3 (≈ 5.78 µM) | 1 (≈ 1.93 µM) | 0.8 (≈ 1.54 µM) | 1.1 (≈ 2.12 µM) | 1.3 (≈ 2.51 µM) | 1 (≈ 1.93 µM) | 1.2 (≈ 2.31 µM) | 0.8 (≈ 1.54 µM) | 2.8 (≈ 5.4 µM) | 2.5 (≈ 4.82 µM)
4 | C=C/C(C)=C/C[C@]1(C)[C@H]2C[C@H](OC(=O)C(C)CC)C=C3[C@H](OC(C)=O)O[C@H](OC(C)=O)[C@@]32[C@H](OC(C)=O)C[C@@H]1C (relative stereo) [CASEARLUCIN C] | 2.8 (≈ 4.99 µM) | 7.7 (≈ 13.7 µM) | 12 (≈ 21.4 µM) | 3.8 (≈ 6.78 µM) | 4.5 (≈ 8.03 µM) | 5 (≈ 8.92 µM) | 14 (≈ 25 µM) | 3.6 (≈ 6.42 µM) | 9.6 (≈ 17.1 µM) | 15 (≈ 26.8 µM)
5 | C=CC(=C)CC[C@]1(C)[C@H]2C[C@H](OC(=O)C(C)CC)C=C3[C@H](OC(C)=O)O[C@H](OC(C)=O)[C@@]32[C@H](OC(C)=O)C[C@@H]1C (relative stereo) [CASEARLUCIN D] | 2.9 (≈ 5.17 µM) | 9.4 (≈ 16.8 µM) | 6.2 (≈ 11.1 µM) | 3.9 (≈ 6.96 µM) | 4.7 (≈ 8.38 µM) | 3.9 (≈ 6.96 µM) | 10 (≈ 17.8 µM) | 4.1 (≈ 7.31 µM) | 4.6 (≈ 8.2 µM) | 13 (≈ 23.2 µM)
6 | C=CC(=C)CC[C@]1(C)[C@H]2C[C@@H](OC(=O)C(C)CC)C=C3[C@H](OC(C)=O)O[C@H](OC(C)=O)[C@@]32[C@H](OC)C[C@@H]1C (relative stereo) [CASEARLUCIN E] | 2.9 (≈ 5.44 µM) | 3 (≈ 5.63 µM) | 2.8 (≈ 5.26 µM) | 1.7 (≈ 3.19 µM) | 1.8 (≈ 3.38 µM) | 1.8 (≈ 3.38 µM) | 3.9 (≈ 7.32 µM) | 0.9 (≈ 1.69 µM) | 4.1 (≈ 7.7 µM) | 4.3 (≈ 8.07 µM)
